Data taken from patent EP0250134B1, “Method for combating swine dysentery” (IMCERA Group Inc., priority 1986, dated 1987).

Key:
[1] = tested on: Treponema hyodysenteriae induced swine dysentery; experiment: Treponema hyodysenteriae induced swine dysentery, lysocellin in feed, 51-day trial, challenge on study day 22; assay type: in vivo; details: for Number of Pigs per Pen Expressing Clinical Signs of Dysentery During the Postchallenge Period: Anorexia / Number of Pigs per Pen Expressing Clinical Signs of Dysentery During the Postchallenge Period: Any clinical signs / Number of Pigs per Pen Expressing Clinical Signs of Dysentery During the Postchallenge Period: Bloody feces / Number of Pigs per Pen Expressing Clinical Signs of Dysentery During the Postchallenge Period: Dehydrated / Number of Pigs per Pen Expressing Clinical Signs of Dysentery During the Postchallenge Period: Depressed / Number of Pigs per Pen Expressing Clinical Signs of Dysentery During the Postchallenge Period: Gauntness / Number of Pigs per Pen Expressing Clinical Signs of Dysentery During the Postchallenge Period: Lethargic / Number of Pigs per Pen Expressing Clinical Signs of Dysentery During the Postchallenge Period: Reddened skin / Number of Pigs per Pen Expressing Clinical Signs of Dysentery During the Postchallenge Period: Rough hair coat / Number of Pigs per Pen Expressing Clinical Signs of Dysentery During the Postchallenge Period: Weak / Number of Pig Days per Pen with Clinical Signs of Dysentery During the Postchallenge Period: Anorexia / Number of Pig Days per Pen with Clinical Signs of Dysentery During the Postchallenge Period: Bloody feces / Number of Pig Days per Pen with Clinical Signs of Dysentery During the Postchallenge Period: Dehydrated / Number of Pig Days per Pen with Clinical Signs of Dysentery During the Postchallenge Period: Depressed / Number of Pig Days per Pen with Clinical Signs of Dysentery During the Postchallenge Period: Gauntness / Number of Pig Days per Pen with Clinical Signs of Dysentery During the Postchallenge Period: Lethargic / Number of Pig Days per Pen with Clinical Signs of Dysentery During the Postchallenge Period: Reddened skin / Number of Pig Days per Pen with Clinical Signs of Dysentery During the Postchallenge Period: Rough hair coat / Number of Pig Days per Pen with Clinical Signs of Dysentery During the Postchallenge Period: Weak: mean (lower, higher 95% confidence limits); for Number of Pigs per Pen Expressing Clinical Signs of Dysentery During the Postchallenge Period: Anorexia / Number of Pigs per Pen Expressing Clinical Signs of Dysentery During the Postchallenge Period: Any clinical signs / Number of Pigs per Pen Expressing Clinical Signs of Dysentery During the Postchallenge Period: Bloody feces / Number of Pigs per Pen Expressing Clinical Signs of Dysentery During the Postchallenge Period: Dehydrated / Number of Pigs per Pen Expressing Clinical Signs of Dysentery During the Postchallenge Period: Depressed / Number of Pigs per Pen Expressing Clinical Signs of Dysentery During the Postchallenge Period: Gauntness / Number of Pigs per Pen Expressing Clinical Signs of Dysentery During the Postchallenge Period: Lethargic / Number of Pigs per Pen Expressing Clinical Signs of Dysentery During the Postchallenge Period: Reddened skin / Number of Pigs per Pen Expressing Clinical Signs of Dysentery During the Postchallenge Period: Rough hair coat / Number of Pigs per Pen Expressing Clinical Signs of Dysentery During the Postchallenge Period: Weak: 5 pigs/pen; for Number of Pig Days per Pen with Clinical Signs of Dysentery During the Postchallenge Period: Anorexia / Number of Pig Days per Pen with Clinical Signs of Dysentery During the Postchallenge Period: Bloody feces / Number of Pig Days per Pen with Clinical Signs of Dysentery During the Postchallenge Period: Dehydrated / Number of Pig Days per Pen with Clinical Signs of Dysentery During the Postchallenge Period: Depressed / Number of Pig Days per Pen with Clinical Signs of Dysentery During the Postchallenge Period: Gauntness / Number of Pig Days per Pen with Clinical Signs of Dysentery During the Postchallenge Period: Lethargic / Number of Pig Days per Pen with Clinical Signs of Dysentery During the Postchallenge Period: Reddened skin / Number of Pig Days per Pen with Clinical Signs of Dysentery During the Postchallenge Period: Rough hair coat / Number of Pig Days per Pen with Clinical Signs of Dysentery During the Postchallenge Period: Weak: 5 pigs/pen for 28 days = 140 pig days; for fecal condition (number of pen pig days with a specified fecal condition): postchallenge period (Table 5, not given); for Daily feed / Daily gain / Feed/Gain: infected pigs
Text: One hundred twenty (120) cross-bred barrows and gilts were used in a randomized complete blocks design to evaluate the effect of lysocellin on Treponema hyodysenteriae induced swine dysentery. The swine were divided into 4 groups: (1) non-infected, non-medicated controls, (2) infected non-medicated controls, (3) infected, medicated at 98.43 grams lysocellin/t (100 g/T), and (4) infected, medicated at 196.85 grams lysocellin/t (200 g/T). All were observed through a 51-day trial period. Swine in groups (2)-(4) were challenged with Treponema hyodysenteriae on study day 22 and the post-challenge period data were analyzed for significant differences. A description of the experimental design is summarized as follows:
Comparisons were made on treatment 1 vs. treatments 3 and 4, treatment 2 vs. treatment 3 and 4, and treatment 3 vs. treatment 4. The following observations were made based upon data analyzed: postchallenge performance of swine with respect to daily gain and daily feed gain, number of pigs per pen expressing clinical signs of dysentery during the postchallenge period, number of pig days per pen with clinical signs of dysentery during the postchallenge period, and number of pig days per pen with specified fecal score.
Referring to table 3 and table 4, clinical signs of dysentery observed during the postchallenge period are presented as treatment means of: number of pigs per pen expressing the sign and number of pig days the sign was observed within a pen. The value "pig days" was based on 28 days/pig surviving to the end of the trial or number of days a pig survived during the postchallenge period (for example, 5 pigs/pen on trial for 28 days equals 140 pig days). Removal of pigs from a pen during the trial was taken into account in these calculations.

Treponema hyodysenteriae = experiment: in vitro Streak Plate Test Method (inhibition endpoint / MIC on trypticase soy blood agar); assay type: cell-based; details: summary of Table 1
Description: The following test procedure was used to evaluate the anti-Treponema hyodysenteriae activity of the compounds in the present invention. This test procedure establishes the lowest concentration of the compounds that will inhibit the growth on cultures of Treponema hyodysenteriae in an in vitro Streak Plate Test Method.
Procedure: Stock solutions containing 10,000, 1,000, 100, 10, 1.0, and 0.1, micrograms per milliliters of the compound to be tested were prepared. The final dilutions to establish the test concentrations in the media were made by placing the correct volume of stock solution in a petri dish, adding the media (trypticase soy blood agar), and mixing before the media solidified. After the media solidified, the test cultures of Treponema hyodysenteriae were streaked onto the surface of the agar. Petri dishes containing media without test samples were also set up as culture controls and are inoculated in the same manner. All inoculated plates were incubated at 39°C in anaerobic jars for 48 hrs. Inhibition endpoints were then determined by observing the test plates for growth or no growth of the test cultures at the various concentrations of the compounds. If the culture growth occured at one concentration but not at the next higher concentration, the inhibitory endpoint or MIC (Minimum Inhibitory Concentration) was considered the higher concentration.
Referring to Table 1, the culture numbers refer to field isolate strains of Treponema hyodysenteriae. These field isolates were isolated in Illinois, Iowa, and Nebraska. The numbers giving the results in the Table are read as follows: the first number for each isolate and compound tested corresponds to the concentration in micrograms per milliliter where growth occurred and the second number corresponds to the concentration in micrograms per milliliter where no growth occurred.

[2] = 196.85 g/t (200 g/T) lysocellin
[3] = postchallenge period 0-7 days, 98.43 g/t (100 g/T) lysocellin
[4] = postchallenge period 0-7 days, 196.85 g/t (200 g/T) lysocellin
[5] = postchallenge period 0-14 days, 98.43 g/t (100 g/T) lysocellin
[6] = postchallenge period 0-14 days, 196.85 g/t (200 g/T) lysocellin
[7] = postchallenge period 0-21 days, 98.43 g/t (100 g/T) lysocellin
[8] = postchallenge period 0-21 days, 196.85 g/t (200 g/T) lysocellin
[9] = postchallenge period 0-28 days, 98.43 g/t (100 g/T) lysocellin
[10] = postchallenge period 0-28 days, 196.85 g/t (200 g/T) lysocellin

## lysocellin
[1]; 98.43 g/t (100 g/T) lysocellin
  Number of Pigs per Pen Expressing Clinical Signs of Dysentery During the Postchallenge Period: Anorexia: 0.00 (-0.27,0.37)
  Number of Pigs per Pen Expressing Clinical Signs of Dysentery During the Postchallenge Period: Any clinical signs: 4.49 (3.42,5.69)
  Number of Pigs per Pen Expressing Clinical Signs of Dysentery During the Postchallenge Period: Bloody feces: 2.73 (1.93,3.66)
  Number of Pigs per Pen Expressing Clinical Signs of Dysentery During the Postchallenge Period: Dehydrated: 1.08 (0.44,1.89)
  Number of Pigs per Pen Expressing Clinical Signs of Dysentery During the Postchallenge Period: Depressed: 1.78 (1.18,2.47)
  Number of Pigs per Pen Expressing Clinical Signs of Dysentery During the Postchallenge Period: Gauntness: 3.98 (3.13,4.92)
  Number of Pigs per Pen Expressing Clinical Signs of Dysentery During the Postchallenge Period: Lethargic: 2.12 (1.50,2.82)
  Number of Pigs per Pen Expressing Clinical Signs of Dysentery During the Postchallenge Period: Reddened skin: 0.87 (0.24,1.69)
  Number of Pigs per Pen Expressing Clinical Signs of Dysentery During the Postchallenge Period: Rough hair coat: 1.93 (1.20,2.79)
  Number of Pigs per Pen Expressing Clinical Signs of Dysentery During the Postchallenge Period: Weak: 1.93 (1.31,2.64)
  Number of Pig Days per Pen with Clinical Signs of Dysentery During the Postchallenge Period: Anorexia: 0.00 (-0.30,0.43)
  Number of Pig Days per Pen with Clinical Signs of Dysentery During the Postchallenge Period: Bloody feces: 9.98 (5.72,15.34)
  Number of Pig Days per Pen with Clinical Signs of Dysentery During the Postchallenge Period: Dehydrated: 2.69 (1.40,4.33)
  Number of Pig Days per Pen with Clinical Signs of Dysentery During the Postchallenge Period: Depressed: 3.14 (1.78,4.81)
  Number of Pig Days per Pen with Clinical Signs of Dysentery During the Postchallenge Period: Gauntness: 30.35 (20.97,41.42)
  Number of Pig Days per Pen with Clinical Signs of Dysentery During the Postchallenge Period: Lethargic: 9.08 (4.93,14.42)
  Number of Pig Days per Pen with Clinical Signs of Dysentery During the Postchallenge Period: Reddened skin: 2.21 (0.51,4.72)
  Number of Pig Days per Pen with Clinical Signs of Dysentery During the Postchallenge Period: Rough hair coat: 18.07 (7.46,33.11)
  Number of Pig Days per Pen with Clinical Signs of Dysentery During the Postchallenge Period: Weak: 0.87 (0.08,1.99)
[1]; 196.85 g lysocellin/t (200 g/T) rather than 98.43 g/T
  fecal condition (number of pen pig days with a specified fecal condition): increased (PM.05) the number of days with normal feces and decreased (P<.05) the incidence of soft, watery or bloody feces
[1]; [2]
  Number of Pigs per Pen Expressing Clinical Signs of Dysentery During the Postchallenge Period: Anorexia: 0.00 (-0.27,0.37)
  Number of Pigs per Pen Expressing Clinical Signs of Dysentery During the Postchallenge Period: Any clinical signs: 2.72 (1.87,3.70)
  Number of Pigs per Pen Expressing Clinical Signs of Dysentery During the Postchallenge Period: Bloody feces: 1.20 (0.63,1.89)
  Number of Pigs per Pen Expressing Clinical Signs of Dysentery During the Postchallenge Period: Dehydrated: 0.23 (-0.18,0.80)
  Number of Pigs per Pen Expressing Clinical Signs of Dysentery During the Postchallenge Period: Depressed: 0.27 (-0.06,0.70)
  Number of Pigs per Pen Expressing Clinical Signs of Dysentery During the Postchallenge Period: Gauntness: 1.96 (1.35,2.67)
  Number of Pigs per Pen Expressing Clinical Signs of Dysentery During the Postchallenge Period: Lethargic: 0.43 (0.08,0.87)
  Number of Pigs per Pen Expressing Clinical Signs of Dysentery During the Postchallenge Period: Reddened skin: 0.55 (0.01,1.28)
  Number of Pigs per Pen Expressing Clinical Signs of Dysentery During the Postchallenge Period: Rough hair coat: 1.31 (0.68,2.06)
  Number of Pigs per Pen Expressing Clinical Signs of Dysentery During the Postchallenge Period: Weak: 1.31 (0.78,1.93)
  Number of Pig Days per Pen with Clinical Signs of Dysentery During the Postchallenge Period: Anorexia: 0.00 (-0.30,0.43)
  Number of Pig Days per Pen with Clinical Signs of Dysentery During the Postchallenge Period: Bloody feces: 3.02 (0.78,6.35)
  Number of Pig Days per Pen with Clinical Signs of Dysentery During the Postchallenge Period: Dehydrated: 0.23 (-0.30,1.09)
  Number of Pig Days per Pen with Clinical Signs of Dysentery During the Postchallenge Period: Depressed: 0.38 (-0.21,1.29)
  Number of Pig Days per Pen with Clinical Signs of Dysentery During the Postchallenge Period: Gauntness: 11.17 (5.73,18.30)
  Number of Pig Days per Pen with Clinical Signs of Dysentery During the Postchallenge Period: Lethargic: 1.82 (0.07,4.74)
  Number of Pig Days per Pen with Clinical Signs of Dysentery During the Postchallenge Period: Reddened skin: 1.29 (-0.02,3.41)
  Number of Pig Days per Pen with Clinical Signs of Dysentery During the Postchallenge Period: Rough hair coat: 9.55 (2.33,21.19)
  Number of Pig Days per Pen with Clinical Signs of Dysentery During the Postchallenge Period: Weak: 0.13 (-0.35,0.94)
[1]; infected pigs fed lysocellin
  mortality: prevented mortality
[1]; infected pigs receiving either level of lysocellin, postchallenge period
  anorexia (clinical sign): No pigs receiving lysocellin appeared anorexic
[1]; pigs receiving lysocellin (either level) vs infected control pigs
  feed efficiency: superior (P<.05)
[1]; pigs receiving lysocellin (either level) vs infected nonmedicated pigs, each period (7, 14, 21 and 28 days)
  cumulative average daily gain: improved (P<.05) over that of nonmedicated pigs
[1]; pigs receiving lysocellin vs infected non-medicated control pigs
  fecal condition (number of pen pig days with a specified fecal condition): Infected non-medicated control pigs had significantly fewer (P<.05) days of normal feces and more (P<.05) days of water or bloody diarrhea than pigs receiving lysocellin
[1]; [3]
  Daily feed: 1.06 kg/day
  Daily gain: 0.35 kg/day
  Feed/Gain: 3.21
[1]; [4]
  Daily feed: 0.94 kg/day
  Daily gain: 0.41 kg/day
  Feed/Gain: 2.30
[1]; [5]
  Daily feed: 0.90 kg/day
  Daily gain: 0.22 kg/day
  Feed/Gain: 4.61
[1]; [6]
  Daily feed: 1.03 kg/day
  Daily gain: 0.35 kg/day
  Feed/Gain: 2.99
[1]; [7]
  Daily feed: 0.89 kg/day
  Daily gain: 0.28 kg/day
  Feed/Gain: 3.38
[1]; [8]
  Daily feed: 1.07 kg/day
  Daily gain: 0.42 kg/day
  Feed/Gain: 2.55
[1]; [9]
  Daily feed: 0.99 kg/day
  Daily gain: 0.33 kg/day
  Feed/Gain: 3.01
[1]; [10]
  Daily feed: 1.15 kg/day
  Daily gain: 0.45 kg/day
  Feed/Gain: 2.55
Treponema hyodysenteriae
  activity compared to the controls: comparable activity
